Several values for one entry are separate records, joined by “and”; a condition that tells them apart may be missing. Identical values can stand only once. Activity calls are given as the source filed them. Some results are limits rather than exact numbers.

For experiment [1], the system named is Streptococcus sp. 'group A'. Kind of experiment: growth inhibition of control SK(-) GAS strain, dose response, counter-screen for streptokinase expression inhibitor project, luminescence, kanamycin, BacTiterGlo, confirmation (AID 1900). It is filed as functional, organism-based. In general terms: The purpose of a counterscreen is to sort out artefacts and off-target activity.

For experiment [2], the system named is Streptococcus. Kind of experiment: Group A Streptococcus viability loss, dose response, counter-screen for streptokinase expression inhibitor project, luminescence, BacTiterGlo (AID 1915).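 Also: potency for reduction of bacterial viability or growth.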 In kind it is functional, organism-based.
For experiment [3], the target named is T1, Streptokinase A (Streptococcus pyogenes serotype M1, UniProt P10520).
T1 sequence (P10520 whole entry): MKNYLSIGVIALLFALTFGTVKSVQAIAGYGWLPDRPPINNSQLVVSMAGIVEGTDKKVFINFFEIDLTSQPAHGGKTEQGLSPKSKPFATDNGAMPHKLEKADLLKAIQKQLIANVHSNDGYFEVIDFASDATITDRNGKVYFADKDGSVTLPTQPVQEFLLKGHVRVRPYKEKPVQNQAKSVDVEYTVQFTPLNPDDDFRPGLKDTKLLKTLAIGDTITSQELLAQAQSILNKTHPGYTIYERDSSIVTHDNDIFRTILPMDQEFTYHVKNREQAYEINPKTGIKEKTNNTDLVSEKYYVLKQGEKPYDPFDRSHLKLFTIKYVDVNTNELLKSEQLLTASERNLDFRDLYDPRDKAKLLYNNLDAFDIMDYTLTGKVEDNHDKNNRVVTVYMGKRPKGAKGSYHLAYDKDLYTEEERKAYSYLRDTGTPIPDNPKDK
In words: S. pyogenes streptokinase expression inhibitors, potency, dose response, plasminogen activation absorbance, OD405 (AID 1914).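 Also: secreted streptokinase activity via plasminogen activation per viability signal from cell pellet.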 It is filed as functional, Streptococcus pyogenes M1 GAS.

The target of experiment [4] is Cytochrome P450 2D6 (Homo sapiens, UniProt P10635).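 Also: CYP2D6 member of a cytochrome P450 panel assay.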
Sequence of Cytochrome P450 2D6 (P10635 whole entry): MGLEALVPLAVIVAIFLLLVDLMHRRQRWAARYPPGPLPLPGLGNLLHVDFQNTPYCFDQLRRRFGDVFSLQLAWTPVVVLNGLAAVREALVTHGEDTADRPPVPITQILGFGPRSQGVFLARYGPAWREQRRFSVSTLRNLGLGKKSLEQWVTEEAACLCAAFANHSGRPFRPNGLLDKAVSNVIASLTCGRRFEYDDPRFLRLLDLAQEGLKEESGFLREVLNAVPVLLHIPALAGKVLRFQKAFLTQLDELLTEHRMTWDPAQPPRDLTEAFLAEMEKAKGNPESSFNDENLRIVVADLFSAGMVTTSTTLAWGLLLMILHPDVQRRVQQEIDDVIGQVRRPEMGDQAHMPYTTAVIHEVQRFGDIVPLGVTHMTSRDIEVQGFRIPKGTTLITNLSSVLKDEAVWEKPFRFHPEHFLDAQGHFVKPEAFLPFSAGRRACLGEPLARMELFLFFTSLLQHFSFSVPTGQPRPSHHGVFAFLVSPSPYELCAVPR
Experiment [5] concerns the target Luciferin 4-monooxygenase (Photinus pyralis, UniProt P08659). Kind of experiment: firefly luciferase enzyme inhibitors, dose response, biochemical, luminescence (AID 1891).
Experiment [6] in a line: Luminescence Cell-Based Dose Confirmation HTS to Identify Inhibitors of Platelet Dense Granule Release. [Related pubchem assays: 1663 (Primary HTS), 1678 (Summary of Project)]. In kind it is functional.
The target of experiment [7] is T2, Cytochrome P450 1A2 (Homo sapiens, UniProt P05177).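 Also: PubChem cytochrome P450 panel assay, CYP1A2 panel member.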
T2 sequence (P05177 whole entry): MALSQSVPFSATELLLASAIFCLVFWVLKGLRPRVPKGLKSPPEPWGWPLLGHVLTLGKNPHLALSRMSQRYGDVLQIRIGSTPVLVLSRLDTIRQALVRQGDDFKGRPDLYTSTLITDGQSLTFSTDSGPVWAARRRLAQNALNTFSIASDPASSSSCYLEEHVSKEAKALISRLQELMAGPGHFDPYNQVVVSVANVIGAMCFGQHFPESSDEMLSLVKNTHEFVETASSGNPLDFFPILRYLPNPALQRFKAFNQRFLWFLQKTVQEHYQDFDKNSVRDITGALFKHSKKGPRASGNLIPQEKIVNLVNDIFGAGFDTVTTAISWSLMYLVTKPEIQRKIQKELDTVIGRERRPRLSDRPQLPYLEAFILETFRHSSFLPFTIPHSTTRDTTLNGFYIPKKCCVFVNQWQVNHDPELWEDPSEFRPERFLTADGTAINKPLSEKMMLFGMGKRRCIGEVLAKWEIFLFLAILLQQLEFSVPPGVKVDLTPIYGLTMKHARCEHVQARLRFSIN

A short description of experiment [8]: Luminescence Cell-Based Dose Retest to Confirm Inhibitors of Cancer Stem Cells. [Related pubchem assays (depositor defined):AID2717, AID2721]. As to conditions: Homo sapiens. It is filed as functional.
Experiment [9] addresses Cytochrome P450 3A4 (Homo sapiens, UniProt P08684).
Experiment [10] can be described thus: cytotoxicity toward NIH3T3 fibroblasts, dose response, counter-screen, cell-based, ATP luminescence, mouse fibroblasts (AID 2010).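 Also: cells exposed to compound for about 90 hours before reading.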 It is filed as functional.
The nature of experiment [11]: inhibitors of intracellular T. cruzi replication, confirmation, NIH3T3 host cells, beta-gal luminescence (AID 2044).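 Also: intracellular parasites grown in NIH/3T3 mouse fibroblasts as host cells; luminescent beta-galactosidase reporter signal from transgenic T. cruzi replicating inside host cells; inhibitors lower the luminescence signal.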 In kind it is functional, cell-based.
Experiment [12] concerns INS1. In words: beta cell apoptosis inhibitors, cytokine rescue, dose response, luminescence, retest (AID 449756).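 Also: cell death triggered by IL-1 beta plus TNF-alpha plus IFN-gamma mixture; protective hits raise ATP signal compared with cytokine alone wells.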 It is filed as functional, cell-based. As to conditions: Rattus norvegicus.
In experiment [13] the target is Cytochrome P450 2C19 (Homo sapiens, UniProt P33261). Kind of experiment: Cytochrome panel assay with activity outcomes. Panel member name: p450-cyp2c19 Compounds with AC50 equal or less than 10 uM are considered active. In kind it is functional. The following applies: read-out: AC50.
Sequence of Cytochrome P450 2C19 (P33261 whole entry): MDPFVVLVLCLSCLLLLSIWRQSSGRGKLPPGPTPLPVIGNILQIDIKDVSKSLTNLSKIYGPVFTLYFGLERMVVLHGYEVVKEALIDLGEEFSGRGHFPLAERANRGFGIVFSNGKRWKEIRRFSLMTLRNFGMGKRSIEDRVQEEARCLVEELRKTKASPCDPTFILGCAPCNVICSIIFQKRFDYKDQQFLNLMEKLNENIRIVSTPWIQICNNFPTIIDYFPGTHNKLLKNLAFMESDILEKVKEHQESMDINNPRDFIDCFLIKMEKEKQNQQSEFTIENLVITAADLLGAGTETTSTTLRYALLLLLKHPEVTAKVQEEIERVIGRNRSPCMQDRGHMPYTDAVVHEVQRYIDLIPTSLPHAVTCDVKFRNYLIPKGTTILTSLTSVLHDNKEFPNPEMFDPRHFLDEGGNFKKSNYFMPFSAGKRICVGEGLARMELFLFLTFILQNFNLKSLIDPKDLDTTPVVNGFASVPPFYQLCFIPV
A short description of experiment [14]: growth suppression of beta-catenin-knockout colon cells, dose response, cell-based, HCT116, human colon tumor (AID 1045).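 Also: HCT116 colon tumor cells with beta catenin knocked out; cells exposed to compound for 60 hours.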 In kind it is functional.
The nature of experiment [15]: growth suppression of PTEN-null colon cells, dose response, cell-based, HCT116 PTEN knockout (AID 1047).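 Also: HCT116 colon tumor cells with PTEN knocked out; cells exposed to compound for 60 hours before readout; potency for loss of cell viability measured by luminescence.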 It is filed as functional.

Sequence of Luciferin 4-monooxygenase (P08659 whole entry): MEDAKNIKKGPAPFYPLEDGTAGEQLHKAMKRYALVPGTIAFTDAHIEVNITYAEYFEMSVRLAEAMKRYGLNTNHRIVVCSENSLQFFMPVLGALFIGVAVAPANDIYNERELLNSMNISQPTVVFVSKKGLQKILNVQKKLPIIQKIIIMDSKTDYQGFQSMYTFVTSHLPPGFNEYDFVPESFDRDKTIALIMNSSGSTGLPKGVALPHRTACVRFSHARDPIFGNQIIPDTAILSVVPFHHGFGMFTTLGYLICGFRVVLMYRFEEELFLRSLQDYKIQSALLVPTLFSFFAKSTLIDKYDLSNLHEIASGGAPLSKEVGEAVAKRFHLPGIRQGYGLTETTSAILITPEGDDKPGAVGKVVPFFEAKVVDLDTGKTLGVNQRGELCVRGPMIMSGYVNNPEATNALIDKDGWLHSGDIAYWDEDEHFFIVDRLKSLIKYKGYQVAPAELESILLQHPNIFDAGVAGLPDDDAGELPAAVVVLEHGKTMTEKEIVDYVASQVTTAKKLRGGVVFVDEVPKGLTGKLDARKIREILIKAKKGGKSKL
Sequence of Cytochrome P450 3A4 (P08684 whole entry): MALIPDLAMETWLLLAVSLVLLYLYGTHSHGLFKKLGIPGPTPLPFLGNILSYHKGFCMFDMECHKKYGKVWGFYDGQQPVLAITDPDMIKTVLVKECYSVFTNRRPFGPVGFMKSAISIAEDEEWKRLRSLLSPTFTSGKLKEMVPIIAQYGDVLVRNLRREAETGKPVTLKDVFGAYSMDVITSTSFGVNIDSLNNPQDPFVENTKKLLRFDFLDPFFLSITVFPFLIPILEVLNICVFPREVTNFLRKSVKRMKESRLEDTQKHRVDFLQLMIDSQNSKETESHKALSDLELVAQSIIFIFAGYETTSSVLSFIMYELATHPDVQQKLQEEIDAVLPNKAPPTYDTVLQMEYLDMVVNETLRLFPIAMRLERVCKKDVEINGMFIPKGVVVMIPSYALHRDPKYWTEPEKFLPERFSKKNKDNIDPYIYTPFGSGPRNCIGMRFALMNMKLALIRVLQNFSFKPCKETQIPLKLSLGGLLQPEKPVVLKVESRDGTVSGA

The EC50 is the concentration giving half of the maximal effect. Regarding `Nc1c(C(=O)OCc2ccccc2)c2nc3ccccc3nc2n1Cc1cccs1`, the EC50 is 10.9 µM (active) in [1], 11.8 µM (active) in [2] and 18.5 µM (active) in [3].

The AC50 is the midpoint of the concentration-response curve, whichever way the signal moves. `COc1cccc(-c2ccc3ncnc(NCCNC(C)=O)c3c2)c1`: the AC50 in experiment [4] is 39.8 µM (inconclusive).

On to `O=[N+]([O-])c1ccc(S(=O)(=O)Cc2ccccc2)c2nonc12`, for which the AC50 in [4] was 6.31 µM (inconclusive).

Turning to `CCN(CC)c1nc(Nc2ccc([N+](=O)[O-])cc2)nc(N(CC)CC)n1`, the EC50 was 6.64 µM (active) in experiment [1], 15.7 µM (active) in [2] and > 150 µM (not active) in [3].

For the compound `Cc1nc2sccn2c(=O)c1S(=O)(=O)NCC(C)c1ccccc1` (stereo unspecified), the EC50 in [5] and in experiment [6] was > 112 µM (not active) each time.

With `CCCc1cc2c(-c3ccccc3)cc(=O)oc2cc1OCc1ccc(C(=O)O)o1`, the half-maximal effective concentration (EC50) in experiment [1] was 8.37 µM (active); in [2] it was > 150 µM (not active); in [3] it was 13.8 µM (active).

For `COc1ncc2nc(-c3cccc(C#N)c3)c(=O)n(CCC#N)c2n1`, the concentration at half-maximal activity (AC50) in experiment [4] was 15.8 µM (inconclusive); in [7], 20 µM (inconclusive).

For `Cc1ccc(Nc2cc(C)nn2-c2nc(C)cc(C)n2)cc1`, the 50% effective concentration (EC50) in [1] was 6.89 µM (active); in [2], 18.2 µM (active); in experiment [3], > 150 µM (not active).

As to `COc1ccc(NC(=O)c2ccc(COc3ccccc3Br)o2)c(OC)c1`, the AC50 in experiment [8] is 2.2 µM (active).

As to `CC(C)OCCCN1CN(S(=O)(=O)c2cccs2)c2nc3ccccc3nc21`, the EC50 in experiment [5] and in [6] was > 112 µM (not active) each time.

For `CC(C)N1CCN(Cc2ccc(OC3CCCC3)cc2)CC1CCO` (stereo unspecified), the AC50 in experiment [8] was 3.58 µM (active).

Turning to `O=C1/C(=C/c2ccncc2)Oc2cc(OS(=O)(=O)c3ccccc3)ccc21`, the AC50 in experiment [8] is 3.32 µM (active).

Take `CC(C)C(=O)N1CCN(c2ccccc2NC(=O)c2cccc(Cl)c2)CC1`: the figures for the half-maximal activity concentration (AC50) in experiment [9], in experiment [4] and in [7] were 12.6 µM (inconclusive), 15.8 µM (inconclusive) and 20 µM (inconclusive), respectively.

Consider `Cc1nnc(SCC(=O)Nc2ccc(Br)cn2)nc1O`, for which the EC50 in experiment [5] and in experiment [6] was > 112 µM (not active) in each case.

For `O=c1c2sc3nc(N4CCOCC4)c4c(c3c2ncn1-c1ccccc1)CCCC4`, the EC50 in [5] and in experiment [6] was > 112 µM (not active) in each case.

Take `CCN(CC(=O)NC1CCS(=O)(=O)C1)S(=O)(=O)c1ccccc1` (stereo unspecified): the concentration for a half-maximal effect (EC50) in [5] and in experiment [6] was > 112 µM (not active) each time.

Turning to `O=C(CSc1ccccc1)Nc1nc2ccccc2[nH]1`, the EC50 in experiment [5] and in [6] was > 112 µM (not active) throughout.

Turning to `CN1CCN(CC(=O)N2c3ccccc3Sc3cc4ccccc4cc32)CC1`, the AC50 was 3.98 µM (inconclusive) in experiment [9] and 3.16 µM (inconclusive) in experiment [4].

Consider `CC(C)NC(=O)N1CC2(CCN(C(=O)c3ccco3)CC2)C1`, for which the half-maximal activity concentration (AC50) in experiment [4] was 12.6 µM (inconclusive).

Turning to `O=C(CSC1CC(=O)N(CC(c2ccccc2)c2ccccc2)C1=O)Nc1ccc(Cl)cc1` (stereo unspecified), the figures for the concentration at half-maximal activity (AC50) in [4] and in experiment [7] were 2 µM (inconclusive) and 35.5 µM (inconclusive), respectively.

Take `C=CCn1cc(/C=C/c2cc[n+](C)cc2)c2ccccc21`: the half-maximal effective concentration (EC50) was > 60 µM (not active) in experiment [10] and 0.323 µM (active) in experiment [11]. Moreover, the half-maximal activity concentration (AC50) in experiment [12] is 4.75 µM (active).

As to `CCOC(=O)Nc1ccc(Cc2ccncc2)cc1`, the half-maximal activity concentration (AC50) in [8] is 25.3 µM (active).

With `CN1CCN(c2ncncc2-c2cccnc2)CC1`, the AC50 in [9] is 12.6 µM (inconclusive); in [4], 2.51 µM (inconclusive); in [7] it was 25.1 µM (inconclusive).

Take `Cc1cccc(NC(=O)CSc2nc(O)c3c(C)cc(C)nc3n2)c1`: the AC50 in experiment [4] was 15.8 µM (inconclusive).

Take `COc1ccc(S(=O)(=O)N/N=C(/C)c2cccc(NC(=O)c3ccccc3Cl)c2)cc1`: the values for the AC50 in experiment [4], in experiment [13] and in [7] were 28.2 µM (inconclusive), 0.398 µM (inconclusive) and 14.1 µM (inconclusive), respectively.

Take `CC1(C)CC(=O)C2=C(C1)N=C1c3ccccc3C(=O)C1C2c1ccc(Cl)cc1` (stereo unspecified): the 50% effective concentration (EC50) in [1] was 6.07 µM (active); in experiment [2] it was > 150 µM (not active); in experiment [3], 14.8 µM (active).

For the compound `COc1ccc(NC(=S)N2CCc3ccccc32)cc1OC`, the concentration for a half-maximal effect (EC50) in experiment [5] and in [6] was > 112 µM (not active) throughout.

Regarding `CN(C)C=O.O=C(c1cc(-c2ccccc2Cl)nc2ccccc12)N1CCN(c2ccccn2)CC1`, the AC50 in experiment [12] is 3.9 µM (active).

Turning to `CCCCCCSc1ccc([C@H]2N[C@@](C)(C(=O)OC)[C@H]3C(=O)N(CC)C(=O)[C@@H]23)cc1`, the AC50 in experiment [8] is 33.7 µM (active).

Take `O=C(NCc1nnc(SCC(=O)N2CCOCC2)o1)c1c(F)cccc1F`: the EC50 in experiment [1], in experiment [2] and in [3] was > 150 µM (not active) throughout.

Consider `Cc1cccc(NC(=O)c2[nH]cnc2C(=O)NC2CCN(C(=O)OC(C)(C)C)CC2)c1`, for which the AC50 in experiment [8] is 5.39 µM (active).

Regarding `COCCNc1ncnc2ccc(-c3cccc(OC)c3)cc12`, the AC50 in [4] is 39.8 µM (inconclusive); in [13], 2.51 µM (inconclusive).

As for `C[C@@H]1CC[C@H]2C(=O)N3[C@@H](CC[C@@H](C)[C@@H]3c3ccc(Br)cc3)C(=O)N2[C@H]1c1ccc(Br)cc1`, the AC50 in experiment [8] was 3.04 µM (active).

Turning to `COc1ccc2[nH]cc(CCNc3nc(-c4ccccc4CN(C)C)nc4ccccc34)c2c1`, the half-maximal activity concentration (AC50) is 2 µM (inconclusive) in experiment [9], 31.6 µM (inconclusive) in experiment [4] and 25.1 µM (inconclusive) in experiment [7].

In the case of `C/C(=N\O)c1cccc[n+]1Cc1ccccc1`, the half-maximal activity concentration (AC50) is 3.98 µM (inconclusive) in experiment [4] and 0.1 µM (inconclusive) in experiment [13].

For the compound `Cc1ccccc1SCC(=O)OCC(=O)N(C)c1c(N)n(Cc2ccccc2)c(=O)[nH]c1=O`, the concentration for a half-maximal effect (EC50) in experiment [5] and in experiment [6] was > 112 µM (not active) each time.

On to `Cc1ccc(NC(=O)C(C)Sc2nnc(C)n2C2CC2)cc1S(=O)(=O)N1CCOCC1` (stereo unspecified), for which the AC50 in [12] was > 260 µM (inconclusive).

`COC(=O)C1(Cc2ccccc2)C=C2C(=C(C)C(=O)C2C)CN1` (stereo unspecified): the concentration at half-maximal activity (AC50) was 15.8 µM (inconclusive) in experiment [9], 15.8 µM (inconclusive) in experiment [4], 39.8 µM (inconclusive) in [13] and 10 µM (inconclusive) in experiment [7].

In the case of `Cc1ccc(C)n1-c1ccc(C(=O)Nc2ccccc2)cc1`, the AC50 in experiment [12] was > 260 µM (inactive).

With `CCN(CC)CCNC(=O)c1cc(S(C)(=O)=O)ccc1OC` [TIAPRIDE], the AC50 in [4] was 7.94 µM (inconclusive) and 31.6 µM (inconclusive).

In the case of `Cn1c2ccccc2c(=O)c2c(=O)n(C3CCCCC3)c(-c3cccs3)nc21`, the 50% effective concentration (EC50) in experiment [14] is 8.9 µM (active); in experiment [1], 10.6 µM (active); in experiment [2], 39.2 µM (active); in experiment [15] it was 7.92 µM (active); in [3] it was > 150 µM (not active).

Consider `Cc1noc(C)c1S(=O)(=O)N(CCc1ccccc1)Cc1ccccc1`, for which the EC50 in [1] is 68.6 µM (active); in experiment [2] it was > 150 µM (not active); in experiment [3], 21.7 µM (active).

For the origin of these results see ChEMBL document CHEMBL1201862, “PubChem BioAssay data set” (2004).
